{
  "source": "patent US20160097044A1",
  "about": "“Antimicrobial Enzyme Fusions Reduce Resistance and Kill Intracellular Staphylococcus aureus” (The United States of America, as Represented by the …, priority 2014, published 2016)",
  "key": {"[1]": {"system": "intracellular S. aureus Newbould 305 in bovine mammary epithelial cell line (MAC-T)", "assay": "Intracellular S. aureus eradication assay in MAC-T cells", "format": "cell-based", "conditions": "25 μg in 1 ml DMEM, 2.5 h", "from_the_text": "(§1) FIGS. 5a-5e depict peptidoglycan hydrolase-protein transduction domain (PGH-PTD) eradication of intracellular S. aureus in cultured cells. Cultured cells were infected, treated with gentamicin to kill extracellular S. aureus, and then treated with the peptidoglycan hydrolases indicated. All results are standardized to the gentamicin (GENT) only control. Nomenclature of the peptidoglycan hydrolase constructs is as in FIG. 1. Asterisks indicate statistical significance detected with single factor ANOVA (α=0.05) with paired t-test posthoc analyses α=0.05 adjusted with Sidák correction for multiple comparisons (for all cases p<0.01). […] Error bars represent SEM. […] Yellow staining in the combined panel represents intracellular co-localization (in a single plane as determined by z-stack analysis) of both S. aureus and K-L-PTD1 (blue arrow). […]\n(§2) Three similar intracellular S. aureus eradication assays from three different labs were optimized for (A) a cultured bovine mammary epithelial cell line (MAC-T, Nexia Biotechnologies, Quebec, Canada; Almeida, supra), (B) primary C57BL/6 mouse-derived osteoblasts (mOBs) (McCall et al. 2008. J. Bone Miner. Res. 23: 30-40) or (C) human brain microvascular endothelial cells (hBMEC; Stins, supra). […] The cell lysate was subjected to serial dilution plating, and the resultant CFUs were counted and normalized to the gentamicin control for each assay. […]"}, "[2]": {"system": "intracellular S. aureus strain UAMS-1 in primary mouse-derived osteoblasts (mOBs)", "assay": "Intracellular S. aureus eradication assay in murine osteoblasts", "format": "cell-based", "conditions": "mOB, 5 μg/ml, 2 h", "from_the_text": "as §1, §2"}, "S. aureus": {"system": "S. aureus", "assay": "Murine model of staphylococcal osteomyelitis (femur)", "format": "in vivo, C57BL/6J mice", "conditions": "5 mg/kg i.m. at site of infection, twice in 24 h, N=6", "description": "Neonatal mouse whole calvaria were treated for 4 hours with chimeric peptidoglycan hydrolases or buffer alone, 24 hours post inoculation with GFP-expressing S. aureus. Calvaria were embedded in freeze media, sectioned, and subjected to fluorescence imaging. The image shown is a representative figure for triplicate sections of three separate calvaria. FIG. 8b depicts fluorescence intensity from these sections measured in ImageJ and defined as arbitrary fluorescence standardized to the untreated control. Error bars represent SEM of four replicate experiments. FIG. 8c depicts ex-vivo intracellular S. aureus eradication. Infected calvaria were homogenized and CFU were counted post treatment. Error bars represent SEM. FIG. 8d depicts a murine model of staphylococcal osteomyelitis. C57BL/6J mice were anesthetized and their femurs were surgically exposed. […] The femurs were removed, homogenized, and plated to quantify the bacterial load. […] Asterisks represent statistical significance as determined by one-way ANOVA followed by Tukey's posthoc test.\nWe utilized a previously described (Marriott, supra) murine model of staphylococcal osteomyelitis that reproduces the clinical and gross pathological phases of inflammatory bone diseases, such as human post-traumatic osteomyelitis. […] Asterisks represent statistical significance as determined by one-way ANOVA followed by Tukey's posthoc test."}},
  "data": [
    {"substance": "K-L: both LysK lytic domains fused to the N-terminus of lysostaphin; SEQ ID NO:5, protein SEQ ID NO:6", "values": [
      {"measurement": "intracellular S. aureus CFUs relative to gentamicin only control", "setting": "[1]", "value": "reduced the intracellular bacteria recovered"},
      {"measurement": "intracellular S. aureus CFUs relative to gentamicin only control", "setting": "[2]", "value": "reduced the intracellular bacteria recovered"},
      {"measurement": "bacterial load in femur compared to no treatment", "setting": "S. aureus", "value": "significantly reduced bacterial load as compared to no treatment"}
    ]}
  ]
}
